According to publication PMC9513391, “Crystal structure of the α-ketoglutarate-dependent non-heme iron oxygenase CmnC in capreomycin biosynthesis and its engineering to catalyze hydroxylation of the substrate enantiomer” (Frontiers in Chemistry, 2022):

Assays:
Format in all cases: binding
CmnC [1] = biological target: T1, CmnC (Saccharothrix mutabilis, UniProt A6YEH4); assay: X-ray crystal structure by soaking; hydroxylation by LC-MS; conditions: 0.1 mM FeCl2 soak
T1 construct: cmnC amplified from genomic DNA in pET28a, E. coli BL21 (DE3), Ni-NTA purified; homodimer in crystal and by size-exclusion chromatography

CmnC [2] = biological target: T2, CmnC (Saccharothrix mutabilis, UniProt A6YEH4, L136Q/S138G/D249Y); assay: X-ray crystal structure by soaking, […] Å; hydroxylation by LC-MS; conditions: 20 mM D-Arg soak, 12 h; activity: α-KG, Fe(II), ascorbate, pH 7.0, 26 °C
T2 construct: cmnC amplified from genomic DNA in pET28a, E. coli BL21 (DE3), Ni-NTA purified; homodimer in crystal and by size-exclusion chromatography

CmnC [3] = biological target: T2, CmnC; assay: X-ray crystal structure by soaking, […] Å; conditions: 3 mM α-KG and 0.1 mM FeCl2 soak, 12 h
CmnC [4] = biological target: T1, CmnC; assay: X-ray crystal structure by soaking; conditions: 3 mM α-KG, 0.1 mM FeCl2 soak, 12 h; ternary complex with L-Arg also solved

T1 sequence (A6YEH4 1-338): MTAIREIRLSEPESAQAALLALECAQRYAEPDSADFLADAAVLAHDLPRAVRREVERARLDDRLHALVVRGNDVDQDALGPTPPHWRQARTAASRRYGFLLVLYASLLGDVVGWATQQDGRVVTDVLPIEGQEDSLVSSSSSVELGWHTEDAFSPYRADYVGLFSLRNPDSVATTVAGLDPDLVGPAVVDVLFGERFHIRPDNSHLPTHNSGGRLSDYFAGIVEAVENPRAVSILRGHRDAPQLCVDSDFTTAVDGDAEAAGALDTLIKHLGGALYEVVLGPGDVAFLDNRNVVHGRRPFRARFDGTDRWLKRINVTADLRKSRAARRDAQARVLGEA
T2 sequence (A6YEH4 1-338 L136Q/S138G/D249Y): as the sequence (A6YEH4 1-338) above, with L136Q, S138G, D249Y counted along it

N=C(N)NCCCC[C@H](N)C(=O)O [L-hArg]
X-ray crystal structure by soaking; hydroxylation by LC-MS (CmnC [1]; 3 mM L-hArg, tartrate in α-KG site): in complex with L-Arg (CmnC^ L−Arg), L-hArg (CmnC^ L-hArg), α-KG (CmnC^α-kg)

N=C(N)NCCC[C@H](N)C(=O)O [L-Arg]
X-ray crystal structure by soaking; hydroxylation by LC-MS (CmnC [1]; 3 mM L-Arg, tartrate in α-KG site in the binary complex, ternary complex with α-KG also solved): in complex with L-Arg (CmnC^ L−Arg), L-hArg (CmnC^ L-hArg), α-KG (CmnC^α-kg)

N=C(N)NCCC[C@@H](N)C(=O)O [D-Arg]
X-ray crystal structure by soaking, 1.75 Å; hydroxylation by LC-MS (CmnC [2]): crystal structures of CmnC^L136Q,S138G,D249Y in complex with α-KG (CmnC^triple,α-kg) and D-Arg (CmnC^triple,D−Arg)

O=C(O)CCC(=O)C(=O)O [α-KG]
X-ray crystal structure by soaking, 1.67 Å (CmnC [3]): crystal structures of CmnC^L136Q,S138G,D249Y in complex with α-KG (CmnC^triple,α-kg) | X-ray crystal structure by soaking (CmnC [4]): L-hArg (CmnC^ L-hArg), α-KG (CmnC^α-kg), and L-Arg/α-KG (CmnC^ L−Arg,α-kg)
